# Results taken from patent US20260008768A1, “UREA DERIVATIVES FOR INHIBITING NLRP3 AND USES THEREOF” (VENTUS THERAPEUTICS U.S., INC., priority 2023, published 2026).
# How the values were obtained:
# human NLRP3 [1] = target: T1, human NLRP3 (Homo sapiens, UniProt Q96P20); assay: Scintillation Proximity (SPA) NLRP3 Assay, displacement of 3H-MCC950; format: binding; conditions: for IC50: displacement of 3H-MCC950 from human NLRP3
# In short: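 Human NLRP3 (350 nM) preincubated 15 min at RT with compound (5% DMSO final) in HEPES pH 7.5 buffer with 100 μM ADP, then 125 nM 3H-MCC950 added for 60 min. Copper PVT SPA beads added; counts read 6 h later. Specific binding = signal minus no-protein wells, duplicates averaged; IC50 reported.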
# human NLRP3 [2] = target: T1, human NLRP3; assay: Human Whole Blood (hWB) NLRP3 Assay (LPS/ATP, IL-1β); format: cell-based; design: host or cells: human whole blood from healthy volunteers (A3)
# Protocol: Human whole blood is drawn from healthy volunteers after obtaining written informed consent. Heparin lithium coated tubes are used to collect blood from volunteers. Blood samples are distributed on 96 well plates using 90 μl per well.
# Priming procedure: Priming is performed by adding 5 μl of LPS (O26:B6; Sigma L-2654) at a final concentration of 1 μg/ml for 4.5 hours in a humidified incubator with 37° C., 5% CO2. Thirty minutes prior to NLRP3 activation, 5 μl of a 20× compound solution or vehicle (2% dimethylsulfoxide (DMSO)) is added to each well and plates were incubated on a shaker (450 rpm) in a humidified incubator with 37° C., 5% CO2.
# Alternative priming procedure: Thirty minutes prior to LPS priming, 5 μl of a 20× compound solution or vehicle (2% dimethylsulfoxide (DMSO)) is added to each well and plates were incubated on a shaker (450 rpm) in a humidified incubator with 37° C., 5% CO2. Priming is performed by adding 5 μl of LPS (O26:B6; Sigma L-2654) at a final concentration of 1 μg/ml for 5 hours in a humidified incubator with 37° C., 5% CO2.
# Activation is then performed by adding 3.3 μl of a 31×ATP solution per well. At the end of the 30 minutes stimulation, the plates are centrifuged (800 g, 10 min, room temperature) and the plasma from each well is frozen at −80° C. IL-1β levels in the supernatant were analyzed using a mesoscale discovery assay (MSD K151TUK) according to the manufacturers' instructions.
# There is no detectable difference in assay results using the priming procedure versus the alternative priming procedure.
# hWB NLRP3 IC50 assay results, as a measurement of whole blood potency, are provided in Table B. “A” activity=<1 uM; “B” activity=1-2 uM; “C” activity=>2-3 uM; “D” activity=>3 uM.
# human NLRP3 [3] = target: T1, human NLRP3; assay: Human PBMC NLRP3 Assay (LPS priming, ATP stimulation, cytokine measurement); format: cell-based; design: host or cells: human PBMCs (A2); human whole blood from healthy volunteers (A3); conditions: for IC50: human PBMC, LPS + ATP
# Protocol: Reagents: Human PBMCs (Normal): iXCells Cat #10HU-003; RPMI 1640 medium with GlutaMAX: ThermoFisher Cat #61870127 (Complete Media: 4.5 g/L D-glucose, 10% FBS, 100 mM NaPyr, 1% Pen/Strep, 10 mM HEPES and 0.05 mM of ®-mercaptoethanol; Assay Media: 4.5 g/L D-glucose, 100 mM NaPyr, 1% Pen/Strep, 10 mM HEPES and 0.05 mM of mercaptoethanol; 96-well V-bottom Plates: Costar Cat #3894; LPS (E. coli O26:B6): Sigma Cat #L2654, stock 5 mg/mL in PBS; ATP: Sigma Cat #A6419, prepared in a 250 mM stock in 1 M HEPES (adjusted to pH 7.4).
# Cryopreserved PBMCs were rapidly thawed in a 37° C. water bath for 2 min. Cells were then centrifuged at 1200 RPM for 5 min and resuspended in ˜50 mL of fresh RPMI 1640 Complete Medium. A count was undertaken using a hemocytometer and adjusted to 2.5×10^5 cells/mL. V-shaped 96-well plates were seeded with 200 μL of PBMCs (5×10^4) per well and subsequently incubated overnight at 37° C. with 5% CO2. Assay Media was then prepared containing 100 ng/ml of LPS. PBMCs were then centrifuged at 1,200 RPM for 5 min, serum containing media was aspirated, and 150 μL/well of Assay Media+LPS was immediately added. Assay Media without LPS was added in the untreated control wells. Cells were then primed with LPS for 4 h at 37° C. with 5% CO2. A concentration response curve (CRC) was prepared of 1000× test compound in 100% DMSO. The CRC was then diluted 1:50 in Assay Media and then further diluted by 1:5× in Assay Media resulting in a final 4×CRC in 0.4% DMSO/Assay Media. 50 μL/well of 4× test compound CRC or vehicle (0.4% DMSO/Assay Media) was then transferred into each well and subsequently incubated for 30 min at 37° C. with 5% CO2. Cells were stimulated by adding 4 μL of 250 mM ATP, using a 250 mM stock prepared in 1 M Hepes without further dilution (for a final concentration of 5 mM), for 1 h at 37° C. with 5% CO2 Plates were then centrifuged at 1200 RPM for 5 min; and 50 μl of the media was transferred to a clean 96-well storage plate for cytokine measurements using the mesoscale platform, and stored at −80° C. until analyzed. Compounds were added 30 minutes before priming the cells with LPS when TNFα was required to be quantified in the cytokine panel to confirm selectivity.
# PBMC NLRP3 IC50 assay results, as a measurement of cellular potency, are provided in Table B. “A” activity=<0.01 uM; “B” activity=0.01-0.1 uM; “C” activity=>0.1-0.5 uM; “D” activity=>0.5 uM.
# [4] = relative to Comparative Example B1
# T1 sequence (Q96P20 whole entry): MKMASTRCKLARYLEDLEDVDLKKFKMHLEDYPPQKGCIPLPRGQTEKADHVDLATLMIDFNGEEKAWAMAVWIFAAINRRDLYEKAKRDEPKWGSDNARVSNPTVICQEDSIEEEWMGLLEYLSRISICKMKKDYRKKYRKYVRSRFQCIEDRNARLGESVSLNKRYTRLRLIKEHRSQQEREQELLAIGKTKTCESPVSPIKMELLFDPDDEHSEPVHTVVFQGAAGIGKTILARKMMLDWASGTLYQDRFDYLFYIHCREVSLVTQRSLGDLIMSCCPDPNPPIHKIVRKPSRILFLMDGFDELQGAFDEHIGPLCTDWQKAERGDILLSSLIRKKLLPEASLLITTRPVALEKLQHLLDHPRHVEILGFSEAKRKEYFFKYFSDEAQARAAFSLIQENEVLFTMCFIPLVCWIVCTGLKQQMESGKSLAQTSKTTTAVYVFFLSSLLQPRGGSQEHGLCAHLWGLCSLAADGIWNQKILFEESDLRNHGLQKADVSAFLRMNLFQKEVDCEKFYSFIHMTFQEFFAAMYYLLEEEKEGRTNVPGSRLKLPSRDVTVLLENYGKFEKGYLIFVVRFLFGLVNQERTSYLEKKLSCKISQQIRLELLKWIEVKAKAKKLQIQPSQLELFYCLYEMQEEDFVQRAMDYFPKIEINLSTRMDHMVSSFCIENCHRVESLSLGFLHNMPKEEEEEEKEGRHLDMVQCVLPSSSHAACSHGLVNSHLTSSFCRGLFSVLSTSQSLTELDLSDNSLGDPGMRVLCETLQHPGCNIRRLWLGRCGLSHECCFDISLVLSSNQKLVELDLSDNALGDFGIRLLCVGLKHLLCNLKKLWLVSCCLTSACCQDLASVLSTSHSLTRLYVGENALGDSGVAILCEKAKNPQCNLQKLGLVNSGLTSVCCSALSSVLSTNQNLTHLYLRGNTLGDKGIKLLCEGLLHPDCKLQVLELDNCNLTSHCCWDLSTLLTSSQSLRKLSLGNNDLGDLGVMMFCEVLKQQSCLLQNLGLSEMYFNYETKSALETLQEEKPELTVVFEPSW
structure (smiles),measurement,setting,value
"C[C@@H]1C[C@@H](NC(=O)N(C)c2ccc(OC(F)(F)F)cc2)[C@H]2CC[C@@H]1N2c1nnn[nH]1 (single isomer, unassigned) [45A*]",IC50,human NLRP3 [1]; Table C,110 nM
same,fold increase in binding activity (SPA IC50),human NLRP3 [1]; relative to Compound 39A,> 12 fold
same,IC50,"human NLRP3 [2]; Table B, activity class",< 1000 nM
same,IC50,human NLRP3 [2]; Table C,420 nM
"C[C@@H]1C[C@@H](NC(=O)N(C)c2ccc(C(F)(F)F)cc2F)[C@H]2CC[C@@H]1N2c1nnn[nH]1 (single isomer, unassigned) [48A*]",IC50,"human NLRP3 [1]; Table B, activity class",< 1000 nM
same,IC50,"human NLRP3 [2]; Table B, activity class",< 1000 nM
"C[C@@H]1CCN(c2nnn[nH]2)C[C@H](NC(=O)N(C)c2ccc(Cl)cc2Cl)C1 (single isomer, unassigned) [7A*]",IC50,"human NLRP3 [1]; Table B, activity class",< 1000 nM
same,IC50,human NLRP3 [1]; Table C,240 nM
same,IC50,"human NLRP3 [3]; Table B, activity class",< 10 nM
same,IC50,human NLRP3 [3]; Table C,9 nM
"C[C@@H]1C[C@@H](NC(=O)N(C)c2ccc(C(F)F)cc2F)[C@H]2CC[C@@H]1N2c1nnn[nH]1 (single isomer, unassigned) [55A*]",IC50,"human NLRP3 [1]; Table B, activity class",< 1000 nM
same,IC50,"human NLRP3 [2]; Table B, activity class",< 1000 nM
"C[C@@H]1C[C@@H](NC(=O)N(C)c2ccc(OC(F)F)c(F)c2F)[C@H]2CC[C@@H]1N2c1nnn[nH]1 (single isomer, unassigned) [58A*]",IC50,"human NLRP3 [2]; Table B, activity class",< 1000 nM
"C[C@@H]1C[C@@H](NC(=O)N(C)c2ccc(OC(F)(F)F)cc2F)[C@H]2CC[C@@H]1N2c1nnn[nH]1 (single isomer, unassigned) [56A*]",IC50,"human NLRP3 [1]; Table B, activity class",< 1000 nM
same,IC50,"human NLRP3 [2]; Table B, activity class",< 1000 nM
"C[C@@H]1CCN(c2nnn[nH]2)C[C@H](NC(=O)N(C)c2ccc(OC(F)(F)F)c(OC(F)F)c2)C1 (single isomer, unassigned) [25A*]",IC50,"human NLRP3 [1]; Table B, activity class",< 1000 nM
same,IC50,"human NLRP3 [2]; Table B, activity class",1000 to 2000 nM
"C[C@@H]1C[C@@H](NC(=O)N(C)c2ccc(OC(F)(F)F)c(OC(F)F)c2)[C@H]2CC[C@@H]1N2c1nnn[nH]1 (single isomer, unassigned) [63A*]",IC50,"human NLRP3 [1]; Table B, activity class",< 1000 nM
same,IC50,"human NLRP3 [2]; Table B, activity class",2000 to 3000 nM
"CN(C(=O)N[C@@H]1CCCN(c2nnn[nH]2)C1)c1ccc(Cl)cc1 [Compound 2A, (R)-3-(1-(1H-tetrazol-5-yl)piperidin-3-yl)-1-(4-chlorophenyl)-1-methylurea]",IC50,"human NLRP3 [1]; Table B, activity class",1000 to 10000 nM
same,IC50,human NLRP3 [1]; Table C,9700 nM
same,fold improvement in binding activity (SPA IC50),human NLRP3 [1]; [4],> 19 fold
same,IC50,"human NLRP3 [3]; Table B, activity class",100 to 500 nM
same,IC50,human NLRP3 [3]; Table C,268 nM
same,fold increase in potency as measured by PBMC IC50,human NLRP3 [3]; relative to Comparative Example A*,> 350 fold
same,fold improvement in potency (PBMC IC50),human NLRP3 [3]; [4],> 18 fold
same,fold increase in potency as measured by PBMC IC50,human NLRP3 [3]; relative to Comparative Example B2,> 15 fold
same,fold improvement in potency (PBMC IC50),human NLRP3 [3]; relative to Comparative Example C1,40 fold
same,fold improvement in potency (PBMC IC50),human NLRP3 [3]; relative to Comparative Example C2,> 200 fold
same,fold increase in potency (PBMC IC50),human NLRP3 [3]; relative to Comparative Example D1,146 fold
same,fold increase in potency (PBMC IC50),human NLRP3 [3]; relative to Comparative Example D2,> 350 fold
same,fold increase in potency (PBMC IC50),human NLRP3 [3]; relative to Comparative Example F,58 fold
same,fold increase in potency (PBMC IC50),human NLRP3 [3]; relative to Comparative Example G,> 350 fold
same,fold increase in potency (PBMC IC50),human NLRP3 [3]; relative to Comparative Example H,39 fold
same,fold increase in potency (PBMC IC50),human NLRP3 [3]; relative to Comparative Example J1,> 350 fold
same,fold increase in potency (PBMC IC50),human NLRP3 [3]; relative to Comparative Example J2,> 350 fold
"C[C@H]1CCN(c2nnn[nH]2)C[C@@H](NC(=O)N(C)c2ccc(OC(F)F)c(F)c2F)C1 (single isomer, unassigned) [40D*]",IC50,"human NLRP3 [1]; Table B, activity class",1000 to 10000 nM
same,IC50,"human NLRP3 [2]; Table B, activity class",> 3000 nM
"C[C@@H]1C[C@@H](NC(=O)N(C)c2ccc(OC(F)(F)F)c(F)c2)[C@H]2CC[C@@H]1N2c1nnn[nH]1 (single isomer, unassigned) [51A*]",IC50,"human NLRP3 [1]; Table B, activity class",< 1000 nM
same,IC50,"human NLRP3 [2]; Table B, activity class",1000 to 2000 nM
"C[C@@H]1CCN(c2nnn[nH]2)C[C@H](NC(=O)N(C)c2ccc(C(F)(F)F)c(F)c2)C1 (single isomer, unassigned) [9A*]",IC50,"human NLRP3 [1]; Table B, activity class",< 1000 nM
same,IC50,"human NLRP3 [3]; Table B, activity class",10 to 100 nM
